The target of the experiment is Delta-5-Desaturase (D5D) (Homo sapiens (Human), UniProt O60427). As to the kind of experiment: In vitro measurement of Delta-5-Desaturase inhibitory activity using DGLA-CoA and Arachidonyl-CoA mass spectrometric assays. It counts as biochemical. Particulars: membrane preparations of D5D-overexpressing HEK293 6E cells; averaged over at least two independent runs. The method, then:
In vitro Measurement of Delta-5-Desaturase Inhibitory Activity using DGLA-CoA and Arachidonyl-CoA Mass Spectrometric Assays
Membrane preparations of D5D-overexpressing HEK293 6E cells were prepared in which the total protein concentration was 5.6 mg/mL. Stock D5D membrane preparations were diluted in D5D assay buffer (25 mM 2-amino-2-(hydroxymethyl)-1,3-propanediol, pH 7.5 containing 10 mM MgCl2, 1 mM octyl glucoside (SigmaAldrich 0-8001), 1 mM tris(2-carboxyethyl)phosphine hydrochloride (SigmaAldrich 646547)) to a final D5D membrane concentration of 10 μg/mL in an assay plate containing serially diluted test compounds. To 15 μL of this D5D preparation was added 15 μL of a substrate solution (0.25 mM NADH (nicotinamide adenine dinucleotide, Roche Diag. 10107735001), 0.25 mM adenosine triphosphate (SigmaAldrich A-3377), 0.05 mM coenzyme A hydrate (SigmaAldrich C-4282), and 0.01 mM DGLA (dihomo-g-linolenic acid, Sigma E-4504) in the same D5D assay buffer. After one-hour incubation at ambient temperature acetonitrile (30 μL) was added to quench the reaction and plates were centrifuged for 10 min @3,000 rpm. Mass spectrometric analysis involved a Rapidfire 360 SPE system coupled to an ABSciex API4000 Triple Quadrupole mass spectrometer using a C18 SPE cartridge (G9203-80105) with ionization in negative mode (solvent A=100% water; solvent B=100% acetonitrile, each solvent containing 5 mM ammonium acetate). DGLA-CoA and Arachidonyl-CoA were detected by multiple reaction monitoring (MRM) of the doubly charged parent ions at m/z 526.6 and 525.6, respectively.
Sx is value from unknown sample, So is value from DMSO alone and Sc is value from no enzyme well. For CRC analysis, the % of inhibitions were analyzed with 4 Parameter Logistic Model or Sigmoidal Dose-Response Model using XLfit (IDBS, Guilford, UK). The potency of the test item was expressed as IC50 nM, corresponding to the test item concentration able to inhibit the 50% of the enzyme maximal response. IC50 values were averaged values determined by at least two independent runs.
This assay may be used to test any of the compounds described herein to assess and characterize a compound's ability to inhibit D5D.

Sequence of Delta-5-Desaturase (D5D) (O60427 whole entry, species assumed): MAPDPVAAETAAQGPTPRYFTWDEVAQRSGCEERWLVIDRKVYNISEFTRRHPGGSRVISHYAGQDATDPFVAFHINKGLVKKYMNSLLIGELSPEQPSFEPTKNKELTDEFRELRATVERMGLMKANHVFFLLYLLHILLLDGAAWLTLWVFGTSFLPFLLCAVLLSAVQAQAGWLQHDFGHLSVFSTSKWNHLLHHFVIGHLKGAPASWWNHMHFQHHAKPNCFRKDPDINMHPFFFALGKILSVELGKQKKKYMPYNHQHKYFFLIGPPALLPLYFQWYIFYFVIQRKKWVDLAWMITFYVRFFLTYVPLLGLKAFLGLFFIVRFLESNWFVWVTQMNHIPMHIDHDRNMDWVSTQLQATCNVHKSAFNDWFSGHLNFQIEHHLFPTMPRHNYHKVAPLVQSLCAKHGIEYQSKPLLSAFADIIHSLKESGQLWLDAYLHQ

For `CCCc1ccc(-c2c(C(F)(F)F)nc3cc(OC)ccn3c2=O)cn1` [Example 7-6, 8-methoxy-3-(6-propyl-3-pyridinyl)-2-(trifluoromethyl)-4H-pyrido[1,2-a]pyrimidin-4-one], the IC50 was 0.302 µM.

Compound `COc1ccn2c(=O)c(-c3ccc(OC(F)F)cc3)c(C(F)(F)F)nc2c1` [Example 1-54, 3-(4-(difluoromethoxy)phenyl)-8-methoxy-2-(trifluoromethyl)-4H-pyrido[1,2-a]pyrimidin-4-one] had an IC50 of 0.0066 µM.

Consider `COc1cc(C)n2c(=O)c(-c3cnn(CC(F)(F)C(F)(F)F)c3)c(C(F)(F)F)nc2c1` [Example 39-8, 8-methoxy-6-methyl-3-[1-(2,2,3,3,3-pentafluoropropyl)-1H-pyrazol-4-yl]-2-(trifluoromethyl)-4H-pyrido[1,2-a]pyrimidin-4-one], for which the half-maximal inhibitory concentration (IC50) was found to be 1.35 µM.

Consider `COc1cc2nc(C(F)(F)F)c(-c3cnn(CCC(F)(F)F)c3)c(=O)n2cc1F` [Example 39-58, 7-fluoro-8-methoxy-2-(trifluoromethyl)-3-[1-(3,3,3-trifluoropropyl)-1H-pyrazol-4-yl]-4H-pyrido[1,2-a]pyrimidin-4-one], for which the IC50 was determined as 0.0204 µM.

On to `Cc1nccn2c(=O)c(-c3cnn(CC(F)(F)C(F)(F)F)c3)c(C(F)(F)F)nc12` [Example 39-41, 9-methyl-3-[1-(2,2,3,3,3-pentafluoropropyl)-1H-pyrazol-4-yl]-2-(trifluoromethyl)-4H-pyrazino[1,2-a]pyrimidin-4-one], for which the IC50 turned out to be 0.0651 µM.

In turn, `O=c1c(-c2ccc(OCC(F)(F)F)cc2)c(C(F)(F)F)nc2cc(C3CC3)ccn12` [Example 4-2, 8-cyclopropyl-3-(4-(2,2,2-trifluoroethoxy)phenyl)-2-(trifluoromethyl)-4H-pyrido[1,2-a]pyrimidin-4-one] yielded an IC50 of 0.111 µM.

On to `Cc1cnc2nc(C(F)(F)F)c(-c3cnn(CC(F)(F)C(F)(F)F)c3)c(=O)n2c1` [Example 40-2, 7-methyl-3-[1-(2,2,3,3,3-pentafluoropropyl)-1H-pyrazol-4-yl]-2-(trifluoromethyl)-4H-[1,3]diazino[1,2-a]pyrimidin-4-one], for which the IC50 is 0.0518 µM.

Regarding `O=c1c(-c2cnn(CC(F)(F)C(F)(F)F)c2)c(C(F)(F)F)nc2cnc(Cl)cn12` [Example 39-35, 7-chloro-3-[1-(2,2,3,3,3-pentafluoropropyl)-1H-pyrazol-4-yl]-2-(trifluoromethyl)-4H-pyrazino[1,2-a]pyrimidin-4-one], it took 0.0134 µM to reach half-maximal inhibition (IC50).

`COc1ccc2nc(C(F)(F)F)c(-c3cnc(OCC(F)(F)F)nc3)c(=O)n2n1` [Example 39-15, 7-methoxy-3-[2-(2,2,2-trifluoroethoxy)pyrimidin-5-yl]-2-(trifluoromethyl)-4H-pyrimido[1,2-b]pyridazin-4-one]: the IC50 is greater than 67 µM.

On to `C[C@H](O)c1ccn2c(=O)c(-c3cnn(CC(F)(F)C(F)(F)F)c3)c(C(F)(F)F)nc2c1` [Example 31-2, 8-((1S)-1-hydroxyethyl)-3-(1-(2,2,3,3,3-pentafluoropropyl)-1H-pyrazol-4-yl)-2-(trifluoromethyl)-4H-pyrido[1,2-a]pyrimidin-4-one], for which the midpoint of inhibition, the IC50, lay at 0.16 µM.

Compound `COc1ccn2c(=O)c(-c3ncn(CC(F)(F)C(F)(F)F)n3)c(C(F)(F)F)nc2c1` [Example 54, 8-Methoxy-3-[1-(2,2,3,3,3-pentafluoropropyl)-1H-1,2,4-triazol-3-yl]-2-(trifluoromethyl)-4H-pyrido[1,2-a]pyrimidin-4-one] showed an IC50 greater than 67 µM.

As to `Cc1cc2nc(C(F)(F)F)c(-c3cnn(CCC(F)(F)F)c3)c(=O)n2nc1C` [Example 39-47, 7,8-dimethyl-2-(trifluoromethyl)-3-[1-(3,3,3-trifluoropropyl)-1H-pyrazol-4-yl]-4H-pyrimido[1,2-b]pyridazin-4-one], the IC50 is 0.0656 µM.

`N#Cc1ccn2c(=O)c(-c3cnn(CC(F)(F)C(F)(F)F)c3)c(CF)nc2c1` [Example 1-86, 2-(fluoromethyl)-4-oxo-3-(1-(2,2,3,3,3-pentafluoropropyl)-1H-pyrazol-4-yl)-4H-pyrido[1,2-a]pyrimidine-8-carbonitrile]: the IC50 was 0.134 µM.

The compound `C[S@@+]([O-])c1ccn2c(=O)c(-c3cnn(CC(F)(F)C(F)(F)F)c3)c(C(F)(F)F)nc2c1` [Example 15-6, 8-((R)-methylsulfinyl)-3-(1-(2,2,3,3,3-pentafluoropropyl)-1H-pyrazol-4-yl)-2-(trifluoromethyl)-4H-pyrido[1,2-a]pyrimidin-4-one] yielded an IC50 of 0.173 µM.

As to `[2H]C([2H])([2H])c1ccn2c(=O)c(-c3ccc(OCC(F)(F)F)cc3)c(C(F)(F)F)nc2c1` [Example 2-5, 8-(methyl-d3)-3-(4-(2,2,2-trifluoroethoxy)phenyl)-2-(trifluoromethyl)-4H-pyrido[1,2-a]pyrimidin-4-one], the IC50 is 0.0039 µM.

The compound `COc1ccn2c(=O)c(-c3cc4ccccc4o3)c(C(F)(F)F)nc2c1` [Example 1-7, 3-(1-benzofuran-2-yl)-8-methoxy-2-(trifluoromethyl)-4H-pyrido[1,2-a]pyrimidin-4-one] returned an IC50 of 0.0852 µM.

Regarding `COc1ccn2c(=O)c(-c3cc(CC(F)(F)C(F)(F)F)no3)c(C(F)(F)F)nc2c1` [Example 60, 8-Methoxy-3-[3-(2,2,3,3,3-pentafluoropropyl)-1,2-oxazol-5-yl]-2-(trifluoromethyl)-4H-pyrido[1,2-a]pyrimidin-4-one], the IC50 came out at 0.0749 µM.

As to `Cc1ccn2c(=O)c(-c3noc(CCC(F)(F)F)n3)c(C(F)(F)F)nc2c1` [Example 50, 8-Methyl-2-(trifluoromethyl)-3-[5-(3,3,3-trifluoropropyl)-1,2,4-oxadiazol-3-yl]-4H-pyrido[1,2-a]pyrimidin-4-one], the IC50 came out at 5.38 µM.

`COc1ccn2c(=O)c(-c3cnn(C4CC4)c3)c(C(F)(F)F)nc2c1` [Example 49, 3-(1-Cyclopropyl-1H-pyrazol-4-yl)-8-methoxy-2-(trifluoromethyl)-4H-pyrido[1,2-a]pyrimidin-4-one] had an IC50 of 0.104 µM.

For the compound `COc1ccn2c(=O)c(-c3ccc(O[C@@H](C)C#N)cc3)c(C(F)(F)F)nc2n1` [Example 8-7, (2S)-2-(4-(8-methoxy-4-oxo-2-(trifluoromethyl)-4H-pyrimido[1,2-a]pyrimidin-3-yl)phenoxy)propanenitrile], the IC50 came out at 4.91 µM.

As for `Cc1cc2nc(C(F)(F)F)c(-c3cnn(CC(F)(F)C(F)(F)F)c3)c(=O)n2cc1Cl` [Example 41-1, 7-Chloro-8-methyl-3-[1-(2,2,3,3,3-pentafluoropropyl)-1H-pyrazol-4-yl]-2-(trifluoromethyl)-4H-pyrido[1,2-a]pyrimidin-4-one], half-maximal inhibition (IC50) was put at 0.0012 µM.

`COc1ccc2nc(C(F)(F)F)c(-c3cnn(CC(F)(F)C(F)(F)F)c3)c(=O)n2n1` [Example 39-14, 7-methoxy-3-[1-(2,2,3,3,3-pentafluoropropyl)-1H-pyrazol-4-yl]-2-(trifluoromethyl)-4H-pyrimido[1,2-b]pyridazin-4-one]: it took 44.4 µM to reach half-maximal inhibition (IC50).

`Cn1c(=O)ccn2c(=O)c(-c3cnn(CC(F)(F)C(F)(F)F)c3)c(C(F)(F)F)nc12` [Example 67, 1-Methyl-7-[1-(2,2,3,3,3-pentafluoropropyl)-1H-pyrazol-4-yl]-8-(trifluoromethyl)-1H,2H,6H-[1,3]diazino[1,2-a]pyrimidine-2,6-dione] came in with an IC50 of 0.0325 µM.

In turn, `CCCn1cc(-c2c(C(F)(F)F)nc3cc(OC)ccn3c2=O)cn1` [Example 1-76, 8-methoxy-3-(1-propyl-1H-pyrazol-4-yl)-2-(trifluoromethyl)-4H-pyrido[1,2-a]pyrimidin-4-one] came in with a 50% inhibitory concentration (IC50) of 0.0176 µM.

The compound `COc1ccn2c(=O)c(-c3cnn(CC4CC(F)(F)C4)c3)c(C(F)(F)F)nc2c1` [Example 39-49, 3-{1-[(3,3-difluorocyclobutyl)methyl]-1H-pyrazol-4-yl}-8-methoxy-2-(trifluoromethyl)-4H-pyrido[1,2-a]pyrimidin-4-one] came in with an IC50 of 0.0046 µM.

Take `COc1ccn2c(=O)c(-c3ccc(OC[C@H]4CC4(F)F)cc3)c(C(F)(F)F)nc2c1` [Example 1-83, 3-(4-(((1R)-2,2-Difluorocyclopropyl)methoxy)phenyl)-8-methoxy-2-(trifluoromethyl)-4H-pyrido[1,2-a]pyrimidin-4-one]: the midpoint of inhibition, the IC50, lay at 0.0057 µM.

Consider `O=c1ccn2c(=O)c(-c3cnn(CC(F)(F)C(F)(F)F)c3)c(C(F)(F)F)nc2n1CF` [Example 68, 1-(Fluoromethyl)-7-[1-(2,2,3,3,3-pentafluoropropyl)-1H-pyrazol-4-yl]-8-(trifluoromethyl)-1H,2H,6H-[1,3]diazino[1,2-a]pyrimidine-2,6-dione], for which the IC50 amounted to 0.0807 µM.

The values above are taken from patent publication US12473289B2, “Heterocyclic compounds as delta-5 desaturase inhibitors and methods of use” (Amgen Inc., priority 2019, dated 2025).
